Patent US9302999B2, “Substituted triazoles as herbicides” (E. I. DU PONT DE NEMOURS AND COMPANY, priority 2012, dated 2016)

What was measured:
Assay type in all cases: in vivo
[1] = test system: barnyardgrass (Echinochloa crus-galli); test: Test A pre-/postemergence: barnyardgrass; conditions: for Barnyardgrass plant response rating: Postemergence; for Plant response rating, Barnyardgrass: Preemergence
Procedure, shortened: (§1)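 Soil medium was loam blended with sand; treatments pre- and postemergence were applied concurrently, postemergence at one- to two-leaf stage. Approximately ten days in greenhouse preceded visual comparison with untreated controls, scored 0 (no effect) to 100 (complete control).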

[2] = test system: crabgrass, large (large crabgrass, Digitaria sanguinalis); test: Test A pre-/postemergence: crabgrass, large; conditions: for Crabgrass, Large plant response rating: Postemergence; for Plant response rating, Crabgrass, Large: Preemergence
Procedure, shortened: as §1

[3] = test system: foxtail, giant (giant foxtail, Setaria faberii); test: Test A pre-/postemergence: foxtail, giant; conditions: for Foxtail, Giant plant response rating: Postemergence; for Plant response rating, Foxtail, Giant: Preemergence
Procedure, shortened: as §1

[4] = test system: morningglory (Ipomoea spp.); test: Test A pre-/postemergence: morningglory; conditions: for Morningglory plant response rating: Postemergence; for Plant response rating, Morningglory: Preemergence
Procedure, shortened: as §1

[5] = test system: pigweed (Amaranthus retroflexus); test: Test A pre-/postemergence: pigweed; conditions: for Pigweed plant response rating: Postemergence; for Plant response rating, Pigweed: Preemergence
Procedure, shortened: as §1

[6] = test system: velvetleaf (Abutilon theophrasti); test: Test A pre-/postemergence: velvetleaf; conditions: for Velvetleaf plant response rating: Postemergence; for Plant response rating, Velvetleaf: Preemergence
Procedure, shortened: as §1

[7] = test system: wheat (Triticum aestivum); test: Test A pre-/postemergence: wheat; conditions: for Wheat plant response rating: Postemergence; for Plant response rating, Wheat: Preemergence
Procedure, shortened: as §1

corn (Zea mays) = test: Test A pre-/postemergence: corn; conditions: for Corn plant response rating: Postemergence; for Plant response rating, Corn: Preemergence
Procedure, shortened: as §1

rice (Oryza sativa) = test: Test C flooded paddy test: rice; conditions: scale 0 to 100 (0 no effect, 100 complete control)
Procedure, shortened: (§2)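 Plants at 2-leaf stage in pots flooded 3 cm above soil; compounds applied directly into the paddy water, depth maintained. Visual rating against controls after 13–15 days in greenhouse, scale 0 (no effect) to 100 (complete control).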

[8] = test system: sedge, umbrella (small-flower umbrella sedge, Cyperus difformis); test: Test C flooded paddy test: sedge, umbrella; conditions: scale 0 to 100 (0 no effect, 100 complete control)
Procedure, shortened: as §2

[9] = test system: ducksalad (Heteranthera limosa); test: Test C flooded paddy test: ducksalad; conditions: scale 0 to 100 (0 no effect, 100 complete control)
Procedure, shortened: as §2

[10] = test system: barnyardgrass (Echinochloa crus-galli); test: Test C flooded paddy test: barnyardgrass; conditions: scale 0 to 100 (0 no effect, 100 complete control)
Procedure, shortened: as §2

[11] = 125 g ai/ha, 0 to 100 scale, 0 is no effect, 100 is complete control
[12] = 500 g ai/ha, visual rating on 0 to 100 scale (0 no effect, 100 complete control), approximately ten days
[13] = 125 g ai/ha, 0 to 100 scale (0 no effect, 100 complete control)
[14] = 500 g ai/ha, 0 to 100 scale, 0 is no effect, 100 is complete control
[15] = Flood (flooded paddy test), 62 g ai/ha, visual rating after 13 to 15 days
[16] = Flood (flooded paddy test), 125 g ai/ha, visual rating after 13 to 15 days
[17] = Flood (flooded paddy test), 250 g ai/ha, visual rating after 13 to 15 days

Cc1nn(-c2cccc([N+](=O)[O-])c2)nc1C(=O)c1cccc(C(F)(F)F)c1 [Compound 62]
Barnyardgrass plant response rating [1, 11]: 0
Barnyardgrass plant response rating [1, 12]: 10
Plant response rating, Barnyardgrass [1, 13]: 0
Plant response rating, Barnyardgrass [1, 14]: 0
Crabgrass, Large plant response rating [2, 11]: 0
Crabgrass, Large plant response rating [2, 12]: 0
Plant response rating, Crabgrass, Large [2, 13]: 0
Plant response rating, Crabgrass, Large [2, 14]: 0
Foxtail, Giant plant response rating [3, 11]: 0
Foxtail, Giant plant response rating [3, 12]: 0
Plant response rating, Foxtail, Giant [3, 13]: 0
Plant response rating, Foxtail, Giant [3, 14]: 0
Morningglory plant response rating [4, 11]: 0
Morningglory plant response rating [4, 12]: 0
Plant response rating, Morningglory [4, 13]: 0
Plant response rating, Morningglory [4, 14]: 0
Pigweed plant response rating [5, 11]: 0
Pigweed plant response rating [5, 12]: 10
Plant response rating, Pigweed [5, 13]: 0
Plant response rating, Pigweed [5, 14]: 0
Velvetleaf plant response rating [6, 11]: 0
Velvetleaf plant response rating [6, 12]: 0
Plant response rating, Velvetleaf [6, 13]: 0
Plant response rating, Velvetleaf [6, 14]: 0
Wheat plant response rating [7, 11]: 0
Wheat plant response rating [7, 12]: 0
Plant response rating, Wheat [7, 13]: 0
Plant response rating, Wheat [7, 14]: 0
Corn plant response rating (corn (Zea mays); [11]): 0
Corn plant response rating (corn (Zea mays); [12]): 0
Plant response rating, Corn (corn (Zea mays); [13]): 0
Plant response rating, Corn (corn (Zea mays); [14]): 0
Plant response rating, Rice (rice (Oryza sativa); [15]): 0
Plant response rating, Rice (rice (Oryza sativa); [16]): 0
Plant response rating, Rice (rice (Oryza sativa); [17]): 0
Plant response rating, Rice (rice (Oryza sativa); Flood, 31 g ai/ha): 0
Plant response rating, Sedge, Umbrella [8, 15]: 0
Plant response rating, Sedge, Umbrella [8, 16]: 0
Plant response rating, Sedge, Umbrella [8, 17]: 0
Plant response rating, Sedge, Umbrella ([8]; Flood, 31 g ai/ha): 0
Plant response rating, Ducksalad [9, 15]: 0
Plant response rating, Ducksalad [9, 16]: 0
Plant response rating, Ducksalad [9, 17]: 0
Plant response rating, Ducksalad ([9]; Flood, 31 g ai/ha): 0
Plant response rating, Barnyardgrass [10, 15]: 0
Plant response rating, Barnyardgrass [10, 16]: 0
Plant response rating, Barnyardgrass [10, 17]: 0
Plant response rating, Barnyardgrass ([10]; Flood, 31 g ai/ha): 0

Cc1nn(-c2ccccc2[N+](=O)[O-])nc1C(=O)c1cccc(C(F)(F)F)c1 [Compound 63]
Barnyardgrass plant response rating [1, 11]: 0
Barnyardgrass plant response rating [1, 12]: 0
Plant response rating, Barnyardgrass [1, 13]: 0
Plant response rating, Barnyardgrass [1, 14]: 0
Crabgrass, Large plant response rating [2, 11]: 0
Crabgrass, Large plant response rating [2, 12]: 0
Plant response rating, Crabgrass, Large [2, 13]: 0
Plant response rating, Crabgrass, Large [2, 14]: 0
Foxtail, Giant plant response rating [3, 11]: 0
Foxtail, Giant plant response rating [3, 12]: 0
Plant response rating, Foxtail, Giant [3, 13]: 0
Plant response rating, Foxtail, Giant [3, 14]: 0
Morningglory plant response rating [4, 11]: 0
Morningglory plant response rating [4, 12]: 0
Plant response rating, Morningglory [4, 13]: 0
Plant response rating, Morningglory [4, 14]: 0
Pigweed plant response rating [5, 11]: 0
Pigweed plant response rating [5, 12]: 10
Plant response rating, Pigweed [5, 13]: 0
Plant response rating, Pigweed [5, 14]: 0
Velvetleaf plant response rating [6, 11]: 0
Velvetleaf plant response rating [6, 12]: 0
Plant response rating, Velvetleaf [6, 13]: 0
Plant response rating, Velvetleaf [6, 14]: 0
Wheat plant response rating [7, 11]: 0
Wheat plant response rating [7, 12]: 0
Plant response rating, Wheat [7, 13]: 0
Plant response rating, Wheat [7, 14]: 0
Corn plant response rating (corn (Zea mays); [11]): 0
Corn plant response rating (corn (Zea mays); [12]): 0
Plant response rating, Corn (corn (Zea mays); [13]): 0
Plant response rating, Corn (corn (Zea mays); [14]): 0
Plant response rating, Rice (rice (Oryza sativa); [15]): 0
Plant response rating, Rice (rice (Oryza sativa); [16]): 0
Plant response rating, Rice (rice (Oryza sativa); [17]): 0
Plant response rating, Rice (rice (Oryza sativa); Flood, 31 g ai/ha): 0
Plant response rating, Sedge, Umbrella [8, 15]: 0
Plant response rating, Sedge, Umbrella [8, 16]: 0
Plant response rating, Sedge, Umbrella [8, 17]: 0
Plant response rating, Sedge, Umbrella ([8]; Flood, 31 g ai/ha): 0
Plant response rating, Ducksalad [9, 15]: 0
Plant response rating, Ducksalad [9, 16]: 0
Plant response rating, Ducksalad [9, 17]: 0
Plant response rating, Ducksalad ([9]; Flood, 31 g ai/ha): 0
Plant response rating, Barnyardgrass [10, 15]: 0
Plant response rating, Barnyardgrass [10, 16]: 0
Plant response rating, Barnyardgrass [10, 17]: 0
Plant response rating, Barnyardgrass ([10]; Flood, 31 g ai/ha): 0

Cc1nn(-c2cncc(C(F)(F)F)c2)nc1C(=O)c1cccc(C(F)(F)F)c1 [Compound 66]
Barnyardgrass plant response rating [1, 11]: 0
Barnyardgrass plant response rating [1, 12]: 10
Plant response rating, Barnyardgrass [1, 13]: 0
Plant response rating, Barnyardgrass [1, 14]: 0
Crabgrass, Large plant response rating [2, 11]: 10
Crabgrass, Large plant response rating [2, 12]: 10
Plant response rating, Crabgrass, Large [2, 13]: 10
Plant response rating, Crabgrass, Large [2, 14]: 50
Foxtail, Giant plant response rating [3, 11]: 0
Foxtail, Giant plant response rating [3, 12]: 10
Plant response rating, Foxtail, Giant [3, 13]: 10
Plant response rating, Foxtail, Giant [3, 14]: 70
Morningglory plant response rating [4, 11]: 0
Morningglory plant response rating [4, 12]: 10
Plant response rating, Morningglory [4, 13]: 0
Plant response rating, Morningglory [4, 14]: 0
Pigweed plant response rating [5, 11]: 10
Pigweed plant response rating [5, 12]: 30
Plant response rating, Pigweed [5, 13]: 0
Plant response rating, Pigweed [5, 14]: 10
Velvetleaf plant response rating [6, 11]: 0
Velvetleaf plant response rating [6, 12]: 10
Plant response rating, Velvetleaf [6, 13]: 0
Plant response rating, Velvetleaf [6, 14]: 0
Wheat plant response rating [7, 11]: 0
Wheat plant response rating [7, 12]: 10
Plant response rating, Wheat [7, 13]: 0
Plant response rating, Wheat [7, 14]: 0
Corn plant response rating (corn (Zea mays); [11]): 0
Corn plant response rating (corn (Zea mays); [12]): 10
Plant response rating, Corn (corn (Zea mays); [13]): 0
Plant response rating, Corn (corn (Zea mays); [14]): 0
Plant response rating, Rice (rice (Oryza sativa); [15]): 0
Plant response rating, Rice (rice (Oryza sativa); [17]): 0
Plant response rating, Sedge, Umbrella [8, 15]: 0
Plant response rating, Sedge, Umbrella [8, 17]: 0
Plant response rating, Ducksalad [9, 15]: 0
Plant response rating, Ducksalad [9, 17]: 0
Plant response rating, Barnyardgrass [10, 15]: 0
Plant response rating, Barnyardgrass [10, 17]: 0

Cc1nn(-c2cccc(C(F)(F)F)c2)nc1Oc1cccc(C(F)(F)F)c1 [Compound 70]
Barnyardgrass plant response rating [1, 11]: 0
Barnyardgrass plant response rating [1, 12]: 10
Plant response rating, Barnyardgrass [1, 13]: 0
Plant response rating, Barnyardgrass [1, 14]: 0
Crabgrass, Large plant response rating [2, 11]: 10
Crabgrass, Large plant response rating [2, 12]: 30
Plant response rating, Crabgrass, Large [2, 13]: 0
Plant response rating, Crabgrass, Large [2, 14]: 40
Foxtail, Giant plant response rating [3, 11]: 10
Foxtail, Giant plant response rating [3, 12]: 20
Plant response rating, Foxtail, Giant [3, 13]: 0
Plant response rating, Foxtail, Giant [3, 14]: 50
Morningglory plant response rating [4, 11]: 10
Morningglory plant response rating [4, 12]: 20
Plant response rating, Morningglory [4, 13]: 0
Plant response rating, Morningglory [4, 14]: 0
Pigweed plant response rating [5, 11]: 40
Pigweed plant response rating [5, 12]: 100
Plant response rating, Pigweed [5, 13]: 0
Plant response rating, Pigweed [5, 14]: 10
Velvetleaf plant response rating [6, 11]: 10
Velvetleaf plant response rating [6, 12]: 50
Plant response rating, Velvetleaf [6, 13]: 0
Plant response rating, Velvetleaf [6, 14]: 0
Wheat plant response rating [7, 11]: 0
Wheat plant response rating [7, 12]: 10
Plant response rating, Wheat [7, 13]: 0
Plant response rating, Wheat [7, 14]: 0
Corn plant response rating (corn (Zea mays); [11]): 10
Corn plant response rating (corn (Zea mays); [12]): 20
Plant response rating, Corn (corn (Zea mays); [13]): 0
Plant response rating, Corn (corn (Zea mays); [14]): 0
Plant response rating, Rice (rice (Oryza sativa); [15]): 0
Plant response rating, Rice (rice (Oryza sativa); [16]): 0
Plant response rating, Rice (rice (Oryza sativa); [17]): 0
Plant response rating, Rice (rice (Oryza sativa); Flood, 31 g ai/ha): 0
Plant response rating, Sedge, Umbrella [8, 15]: 0
Plant response rating, Sedge, Umbrella [8, 16]: 0
Plant response rating, Sedge, Umbrella [8, 17]: 0
Plant response rating, Sedge, Umbrella ([8]; Flood, 31 g ai/ha): 0
Plant response rating, Ducksalad [9, 15]: 0
Plant response rating, Ducksalad [9, 16]: 0
Plant response rating, Ducksalad [9, 17]: 0
Plant response rating, Ducksalad ([9]; Flood, 31 g ai/ha): 0
Plant response rating, Barnyardgrass [10, 15]: 0
Plant response rating, Barnyardgrass [10, 16]: 0
Plant response rating, Barnyardgrass [10, 17]: 0
Plant response rating, Barnyardgrass ([10]; Flood, 31 g ai/ha): 0
